Results: the NIST ThermoML archive (doi:10.1021/je700339f)
± gives the expanded uncertainty stated by the source.

Test: xn = mol fraction of the nth substance listed
Details: 298 K, Liquid

ClCCCl [1,2-dichloroethane] + CC(=O)N(C)C
mass density [kg/m3]
Details	x2 = 0.0977	x2 = 0.2003	x2 = 0.2988	x2 = 0.4022	x2 = 0.4999	x2 = 0.6007	x2 = 0.7008	x2 = 0.7988	x2 = 0.8997
10000 kPa	–	–	–	–	1084.8 ± 6.5	1054.2 ± 6.3	1024.8 ± 6.1	996.9 ± 5.9	969.4 ± 5.8
10500 kPa	1219.4 ± 7.4	1183.3 ± 7.2	1149.8 ± 7	1116.1 ± 6.8	1085.2 ± 6.5	1054.5 ± 6.3	1025.2 ± 6.1	997.2 ± 5.9	969.6 ± 5.8
11000 kPa	1219.9 ± 7.4	1183.7 ± 7.2	1150.3 ± 7	1116.5 ± 6.8	1085.6 ± 6.5	1054.8 ± 6.3	1025.5 ± 6.1	997.6 ± 5.9	970 ± 5.8
11500 kPa	1220.3 ± 7.4	1184.2 ± 7.2	1150.7 ± 7	1116.9 ± 6.8	1085.9 ± 6.5	1055.2 ± 6.3	1025.8 ± 6.1	997.9 ± 5.9	970.3 ± 5.8
11900 kPa	–	–	–	–	1086.2 ± 6.5	–	–	–	–
12000 kPa	1220.8 ± 7.4	1184.6 ± 7.3	1151.1 ± 7	1117.2 ± 6.8	–	1055.5 ± 6.3	1026.1 ± 6.1	998.2 ± 5.9	970.6 ± 5.8
12500 kPa	1221.2 ± 7.4	1185 ± 7.3	1151.5 ± 7	1117.6 ± 6.8	1086.6 ± 6.6	1055.8 ± 6.3	1026.5 ± 6.1	998.5 ± 5.9	970.9 ± 5.8
13000 kPa	1221.6 ± 7.4	1185.4 ± 7.3	1151.9 ± 7	1118 ± 6.8	1087 ± 6.6	1056.2 ± 6.3	1026.8 ± 6.1	998.8 ± 5.9	971.2 ± 5.8
13500 kPa	1222 ± 7.4	1185.8 ± 7.3	1152.2 ± 7	1118.4 ± 6.8	1087.3 ± 6.6	1056.5 ± 6.3	1027.1 ± 6.1	999.2 ± 5.9	971.5 ± 5.9
14000 kPa	1222.4 ± 7.4	1186.3 ± 7.3	1152.6 ± 7	1118.7 ± 6.8	1087.7 ± 6.6	1056.8 ± 6.3	1027.4 ± 6.1	999.4 ± 6	971.7 ± 5.8
14500 kPa	1222.9 ± 7.4	1186.7 ± 7.3	1153 ± 7	1119.1 ± 6.8	1088 ± 6.6	1057.1 ± 6.3	1027.8 ± 6.1	999.7 ± 6	972 ± 5.9
14900 kPa	1223.2 ± 7.4	–	–	–	–	–	–	–	–
15000 kPa	–	1187.1 ± 7.3	1153.4 ± 7	1119.4 ± 6.8	1088.4 ± 6.6	1057.5 ± 6.4	1028 ± 6.2	1000 ± 6	972.3 ± 5.9
15500 kPa	1223.7 ± 7.4	1187.4 ± 7.3	1153.8 ± 7	1119.8 ± 6.8	1088.7 ± 6.6	1057.8 ± 6.3	1028.4 ± 6.1	1000.4 ± 6	972.6 ± 5.9
15900 kPa	–	–	–	1120.1 ± 6.8	–	–	–	–	–
16000 kPa	1224.1 ± 7.4	1187.8 ± 7.3	1154.2 ± 7	–	1089.1 ± 6.6	1058.1 ± 6.4	1028.7 ± 6.2	1000.6 ± 6	972.9 ± 5.9
16400 kPa	1224.5 ± 7.4	–	–	–	–	–	–	–	–
16500 kPa	–	1188.2 ± 7.3	1154.6 ± 7	1120.5 ± 6.8	1089.4 ± 6.6	1058.4 ± 6.4	1029 ± 6.1	1001 ± 6	973.2 ± 5.9
16900 kPa	–	–	–	–	–	–	1029.3 ± 6.2	–	–
17000 kPa	1224.9 ± 7.4	1188.6 ± 7.3	1155 ± 7	1120.9 ± 6.8	1089.8 ± 6.6	1058.8 ± 6.4	–	1001.3 ± 6	973.4 ± 5.9
17500 kPa	1225.4 ± 7.4	1189.2 ± 7.3	1155.3 ± 7.1	1121.3 ± 6.8	1090.1 ± 6.6	1059.2 ± 6.4	1029.7 ± 6.2	1001.5 ± 6	973.7 ± 5.9
17900 kPa	–	–	–	1121.5 ± 6.8	–	–	–	–	–
18000 kPa	1225.8 ± 7.4	1189.5 ± 7.3	1155.7 ± 7.1	–	1090.4 ± 6.6	1059.5 ± 6.4	1029.9 ± 6.2	1001.8 ± 6	974 ± 5.9
18500 kPa	1226.1 ± 7.4	1189.8 ± 7.3	1156.1 ± 7.1	1122 ± 6.8	1090.8 ± 6.6	1059.8 ± 6.4	1030.2 ± 6.2	1002.1 ± 6	974.3 ± 5.9
19000 kPa	1226.6 ± 7.4	1190.3 ± 7.3	1156.5 ± 7.1	1122.4 ± 6.8	1091.2 ± 6.6	1060.2 ± 6.4	1030.6 ± 6.2	1002.5 ± 6	974.7 ± 5.9
19500 kPa	1227 ± 7.5	1190.6 ± 7.3	1156.8 ± 7.1	1122.7 ± 6.8	1091.5 ± 6.6	1060.5 ± 6.4	1030.9 ± 6.2	1002.7 ± 6	975 ± 5.9
20000 kPa	1227.5 ± 7.5	–	1157.2 ± 7.1	1123.1 ± 6.8	1091.9 ± 6.6	1060.8 ± 6.4	1031.2 ± 6.2	1003 ± 6	–
20100 kPa	–	1191.1 ± 7.3	–	–	–	–	–	–	975.4 ± 5.8
